Laboratory results: ChEMBL document CHEMBL1148902, “A cytotoxic cyclic heptapeptide from the seeds of Annona cherimola” (J Nat Prod, 2004)
Where a SMILES comes first, the peptide text is derived from it.

Tested on: KB
Experiment: Cytotoxicity against human KB cells
Assay type: functional, cell-based

Work on `COc1cccc2c1C(=O)c1c(O)c3c(c(O)c1C2=O)C[C@@](O)(C(=O)CO)C[C@@H]3O[C@H]1C[C@H](N)[C@H](O)[C@H](C)O1` [DOXORUBICIN] yielded an IC50 of 0.02 µM.
`CC[C@H](C)[C@@H]1NC(=O)[C@H](Cc2c[nH]c3ccccc23)NC(=O)[C@H](C)NC(=O)[C@H](C)NC(=O)CNC(=O)[C@@H]2CCCN2C(=O)[C@@H]2CCCN2C1=O` [CHERIMOLACYCLOPEPTIDE C] (cyclo(AAWIPPG)) was tested, and the IC50 was 0.072 µM.
